This passage reports Ki results from patent US6610677B2, “Pyrazole compounds useful as protein kinase inhibitors” (Vertex Pharmaceuticals Incorporated, priority 2000, dated 2003).

The structures appear in SMILES notation.

For one test, the target named is T1, Aurora-2 (Homo sapiens, UniProt O14965).
T1 sequence (O14965 1-403): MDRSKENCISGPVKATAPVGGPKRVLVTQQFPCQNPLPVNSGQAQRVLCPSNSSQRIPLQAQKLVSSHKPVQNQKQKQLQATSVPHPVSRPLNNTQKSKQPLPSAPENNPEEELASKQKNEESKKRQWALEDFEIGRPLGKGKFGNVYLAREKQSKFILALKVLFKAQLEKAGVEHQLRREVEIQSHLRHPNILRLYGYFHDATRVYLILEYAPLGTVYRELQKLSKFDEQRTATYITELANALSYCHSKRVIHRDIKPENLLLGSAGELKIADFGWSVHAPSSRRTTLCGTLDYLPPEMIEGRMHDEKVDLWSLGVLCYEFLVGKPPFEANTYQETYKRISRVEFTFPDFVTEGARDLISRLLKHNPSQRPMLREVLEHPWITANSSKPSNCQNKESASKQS
The test is described as follows: Ki determination for the inhibition of Aurora-2 (coupled enzyme assay). The note with it: 70 nM Aurora-2, peptide LRRASLG, 30° C. The test is classed as biochemical. On the procedure:
Compounds were screened in the following manner for their ability to inhibit Aurora-2 using a standard coupled enzyme assay (Fox et al (1998) Protein Sci 7, 2249).
To an assay stock buffer solution containing 0.1M HEPES 7.5, 10 mM MgCl2, 1 mM DTT, 25 mM NaCl, 2.5 mM phosphoenolpyruvate, […], 30 mg/ml pyruvate kinase, 10 mg/ml lactate dehydrogenase, […], and 800 μM peptide (LRRASLG, American Peptide, Sunnyvale, Calif.) was added a DMSO solution of a compound of the present invention to a final concentration of 30 μM. The resulting mixture was incubated at 30° C. for 10 min. The reaction was initiated by the addition of 10 μL of Aurora-2 stock solution to give a final concentration of 70 nM in the assay. The rates of reaction were obtained by monitoring absorbance at 340 nm over a 5 minute read time at 30° C. using a BioRad Ultramark plate reader (Hercules, Calif.). The Ki values were determined from the rate data as a function of inhibitor concentration.

The next test deals with T2, GSK-3β (AA 1-420) (Homo sapiens, UniProt P49841).
T2 construct: GSK-3β (AA 1-420)
T2 sequence (P49841 whole entry, the tested form may be a part): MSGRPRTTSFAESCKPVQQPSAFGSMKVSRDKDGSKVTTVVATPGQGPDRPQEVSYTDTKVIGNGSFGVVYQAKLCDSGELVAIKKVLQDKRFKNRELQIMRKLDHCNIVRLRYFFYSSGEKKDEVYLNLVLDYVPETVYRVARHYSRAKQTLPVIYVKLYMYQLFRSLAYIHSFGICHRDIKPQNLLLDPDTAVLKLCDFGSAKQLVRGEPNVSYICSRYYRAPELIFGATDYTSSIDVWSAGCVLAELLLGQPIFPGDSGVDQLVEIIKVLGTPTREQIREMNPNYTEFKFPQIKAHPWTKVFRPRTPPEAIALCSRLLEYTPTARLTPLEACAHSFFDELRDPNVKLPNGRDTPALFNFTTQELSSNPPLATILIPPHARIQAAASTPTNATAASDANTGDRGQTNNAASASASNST
The test is described as follows: Ki determination for the inhibition of GSK-3 (coupled enzyme system). The test is classed as biochemical. The note with it: 20 μM ATP, 300 μM peptide, 20 nM GSK-3β, 30° C. Summed up: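 Pyruvate kinase/lactate dehydrogenase-coupled NADH assay with 20 nM GSK-3β (AA 1-420), 20 μM ATP, 300 μM phosphopeptide HSSPHQS(PO3H2)EDEEE in HEPES pH 7.5, 1.5% DMSO, 30 °C. Compound (12 points, 0.002–30 μM) preincubated 10 min before ATP start; Ki derived from 10-min rates versus inhibitor concentration.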

As a reminder, the Ki is the equilibrium dissociation constant of an inhibitor or competing ligand from its target. A high value points to a looser hold on the target. With `FC(F)(F)c1ccccc1-c1cc2ccccc2c(Nc2n[nH]c3ccccc23)n1` [Compound V-2, (1H-Indazol-3-yl)-[3-(2-trifluoromethyl-phenyl)-isoquinoline-1-yl]-amine], the Ki at Aurora-2 was 1000 to 20000 nM; on GSK-3β (AA 1-420), 100 to 1000 nM.

For the molecule `Cc1cc(Nc2nc(-c3ccccc3Cl)nc(C)c2C)n[nH]1` [II-1, [2-(2-Clorophenyl)-5,6-dimethylpyrimidin-4-yl]-(5-Methyl-2H-pyrazol-3-yl)-amine], the Ki was 100 to 1000 nM at Aurora-2 and < 100 nM at GSK-3β (AA 1-420).

On to `FC(F)(F)c1ccc2[nH]nc(Nc3nc(-c4ccccc4C(F)(F)F)nc4c3CCCC4)c2c1` [II-10, (5-Trifluoromethyl-1H-indazol-3-yl)-[2-(2-trifluoromethyl-phenyl)-5,6,7,8-tetrahydroquinazolin-4-yl]-amine], for which the Ki is 1000 to 20000 nM at Aurora-2 and < 100 nM on GSK-3β (AA 1-420).

Take `FC(F)(F)c1ccccc1-c1nc(Nc2n[nH]c3ccccc23)cc(-c2ccccc2)n1` [II-20, (1H-Indazol-3-yl)-[6-phenyl-2-(2-trifluoromethyl-phenyl)-pyrimidin-4-yl]-amine]: the inhibitory constant (Ki) on Aurora-2 is 100 to 1000 nM; at GSK-3β (AA 1-420), < 100 nM.

For `FC(F)(F)c1ccccc1-c1nc(Nc2n[nH]c3ccccc23)cc(-c2ccncc2)n1` [II-21, (1H-Indazol-3-yl)-[6-(pyridin-4-yl)-2-(2-trifluoromethyl-phenyl)-pyrimidin-4-yl]-amine], the values for the Ki on Aurora-2 and on GSK-3β (AA 1-420) were 1000 to 20000 nM and < 100 nM, respectively.

On to `Cc1cc(Nc2nc(-c3ccccc3C)nc3ccccc23)n[nH]1` [II-33, (5-Methyl-2H-pyrazol-3-yl)-[2-(2-methylphenyl)-quinazolin-4-yl]-amine], for which the Ki at Aurora-2 and on GSK-3β (AA 1-420) was < 100 nM throughout.

For `Cc1cc(Nc2nc(-c3ccc(F)cc3F)nc3ccccc23)n[nH]1` [II-34, [2-(2,4-Difluorophenyl)-quinazolin-4-yl]-(5-methyl-2H-pyrazol-3-yl)-amine], the Ki at Aurora-2 and at GSK-3β (AA 1-420) was < 100 nM each time.

As for `Cc1cc(Nc2nc(-c3ccccc3Cl)nc3ccccc23)n[nH]1` [II-36, [2-(2-Chlorophenyl)-quinazolin-4-yl]-(5-methyl-2H-pyrazol-3-yl)-amine], the inhibitory constant (Ki) on Aurora-2 and at GSK-3β (AA 1-420) was < 100 nM throughout.

In the case of `COc1ccccc1-c1nc(Nc2cc(C)[nH]n2)c2ccccc2n1` [II-37, [2-(2-Methoxyphenyl)-quinazolin-4-yl]-(5-methyl-2H-pyrazol-3-yl)-amine], the inhibition constant Ki on Aurora-2 was < 100 nM.

Take `Cc1cc(Nc2nc(-c3c(C)cccc3C)nc3ccccc23)n[nH]1` [II-38, [2-(2,6-Dimethylphenyl)-quinazolin-4-yl]-(5-methyl-2H-pyrazol-3-yl)-amine]: the Ki at Aurora-2 is 100 to 1000 nM; at GSK-3β (AA 1-420) it was < 100 nM.

Regarding `CC(=O)c1ccccc1-c1nc(Nc2cc(C)[nH]n2)c2ccccc2n1` [II-39, [2-(2-Acetylphenyl)-quinazolin-4-yl]-(5-methyl-2H-pyrazol-3-yl)-amine], the Ki was 100 to 1000 nM on Aurora-2 and < 100 nM at GSK-3β (AA 1-420).

Consider `Cc1cc(Nc2nc(-c3cccc(C)c3C)nc3ccccc23)n[nH]1` [II-40, [2-(2,3-Dimethylphenyl)-quinazolin-4-yl]-(5-methyl-2H-pyrazol-3-yl)-amine], for which the inhibition constant (Ki) on Aurora-2 and on GSK-3β (AA 1-420) was < 100 nM in each case.

For `Cc1cc(Nc2nc(-c3ccccc3C(F)(F)F)nc3ccccc23)n[nH]1` [II-41, (5-Methyl-2H-pyrazol-3-yl)-[2-(2-trifluoromethylphenyl)-quinazolin-4-yl]-amine], the Ki at Aurora-2 and at GSK-3β (AA 1-420) was < 100 nM each time.

`CCc1ccccc1-c1nc(Nc2cc(C)[nH]n2)c2ccccc2n1` [II-42, [2-(2-Ethylphenyl)-quinazolin-4-yl]-(5-Methyl-2H-pyrazol-3-yl)-amine]: the Ki at Aurora-2 was 100 to 1000 nM; at GSK-3β (AA 1-420), < 100 nM.

Take `FC(F)(F)c1ccccc1-c1nc(Nc2cc[nH]n2)c2ccccc2n1` [II-53, (2H-Pyrazol-3-yl)-[2-(2-trifluoromethylphenyl)-quinazolin-4-yl]-amine]: the results for the Ki on Aurora-2 and on GSK-3β (AA 1-420) were 100 to 1000 nM and < 100 nM, respectively.

For the molecule `Oc1cc(Nc2nc(-c3ccccc3C(F)(F)F)nc3ccccc23)n[nH]1` [II-54, (5-Hydroxy-2H-pyrazol-3-yl)-[2-(2-trifluoromethylphenyl)-quinazolin-4-yl]-amine], the Ki was 1000 to 20000 nM at Aurora-2 and < 100 nM on GSK-3β (AA 1-420).

In the case of `FC(F)(F)c1ccccc1-c1nc(Nc2cc(C3CC3)[nH]n2)c2ccccc2n1` [II-55, (5-Cyclopropyl-2H-pyrazol-3-yl)-[2-(2-trifluoromethyl-phenyl)-quinazolin-4-yl]-amine], at Aurora-2, the Ki is < 100 nM.

In the case of `FC(F)(F)c1ccccc1-c1nc(Nc2n[nH]c3ccccc23)c2ccccc2n1` [II-57, (1H-indazol-3-yl)-[2-(2-trifluoromethyl-phenyl)-quinazolin-4-yl]-amine], the Ki is 1000 to 20000 nM at Aurora-2 and < 100 nM on GSK-3β (AA 1-420).

With `Fc1ccc2[nH]nc(Nc3nc(-c4ccccc4C(F)(F)F)nc4ccccc34)c2c1` [II-59, (5-Fluoro-1H-indazol-3-yl)-[2-(2-trifluoromethyl-phenyl)-quinazolin-4-yl]-amine], the Ki at Aurora-2 was 1000 to 20000 nM; on GSK-3β (AA 1-420), < 100 nM.

As for `Cc1ccc2[nH]nc(Nc3nc(-c4ccccc4C(F)(F)F)nc4ccccc34)c2c1` [II-61, (5-Methyl-1H-indazol-3-yl)-[2-(2-trifluoromethyl-phenyl)-quinazolin-4-yl]-amine], the values for the Ki on Aurora-2 and on GSK-3β (AA 1-420) were 1000 to 20000 nM and < 100 nM, respectively.

As for `Clc1ccccc1-c1nc(Nc2n[nH]c3ccccc23)c2ccccc2n1` [II-63, [2-(2-Chloro-phenyl)-quinazolin-4-yl]-(1H-indazol-3-yl)-amine], the inhibition constant (Ki) at Aurora-2 was 1000 to 20000 nM; at GSK-3β (AA 1-420) it was < 100 nM.

Turning to `FC(F)(F)c1ccc2[nH]nc(Nc3nc(-c4ccccc4C(F)(F)F)nc4ccccc34)c2c1` [II-64, (5-Trifluoromethyl-1H-indazol-3-yl)-[2-(2-trifluoromethyl-phenyl)-quinazolin-4-yl]-amine], the results for the Ki at Aurora-2 and on GSK-3β (AA 1-420) were 100 to 1000 nM and < 100 nM, respectively.

Regarding `Cc1ccccc1-c1nc(Nc2n[nH]c3ccccc23)c2ccccc2n1` [II-67, (1H-indazol-3-yl)-[2-(2-methyl-phenyl)-quinazolin-4-yl]-amine], the Ki on Aurora-2 is 1000 to 20000 nM; at GSK-3β (AA 1-420), < 100 nM.

For `FC(F)(F)c1ccc2c(Nc3nc(-c4ccccc4C(F)(F)F)nc4ccccc34)n[nH]c2c1` [II-69, (6-Trifluoromethyl-1H-indazol-3-yl)-[2-(2-trifluoromethyl-phenyl)-quinazolin-4-yl]-amine], the Ki at Aurora-2 is 1000 to 20000 nM; at GSK-3β (AA 1-420), < 100 nM.

Regarding `O=[N+]([O-])c1ccc2[nH]nc(Nc3nc(-c4ccccc4C(F)(F)F)nc4ccccc34)c2c1` [II-70, (5-Nitro-1H-indazol-3-yl)-[2-(2-trifluoromethyl-phenyl)-quinazolin-4-yl]-amine], the Ki at Aurora-2 is 100 to 1000 nM; at GSK-3β (AA 1-420) it was < 100 nM.

Consider `c1ccc2c(Nc3[nH]nc4ccccc34)nc(N3CCCCC3)nc2c1` [III-143, (1H-Indazol-3-yl)-(2-piperidin-1-yl-quinazolin-4-yl)-amine], for which the Ki at GSK-3β (AA 1-420) lay in the range of 1000 to 20000 nM.

Turning to `CC1CN(c2nc(Nc3[nH]nc4ccccc34)c3ccccc3n2)CC(C)O1` (stereo not shown) [III-145, (1H-Indazol-3-yl)-[2-(2,6-dimethyl-morpholin-4-yl)-quinazolin-4-yl]-amine], the Ki on GSK-3β (AA 1-420) was in the range of 1000 to 20000 nM.

`CC1CCCCN1c1nc(Nc2n[nH]c3ccccc23)c2ccccc2n1` (stereo not shown) [III-146] displayed a Ki on GSK-3β (AA 1-420) of 1000 to 20000 nM.

With `Fc1ccc2[nH]nc(Nc3nc(-c4ccccc4)nc4c3CNCC4)c2c1` [IV-36, (5-Fluoro-1H-indazol-3-yl)-(2-phenyl-5,6,7,8-tetrahydro-pyrido[4,3-d]pyrimidin-4-yl)-amine], at GSK-3β (AA 1-420), the Ki was in the range of 100 to 1000 nM.

As to `Cc1nc(Nc2nc(-c3ccccc3C(F)(F)F)nc3ccccc23)n[nH]1` [IX-38, (5-Methyl-2H-[1,2,4]triazol-3-yl)-[2-(2-trifluoromethylphenyl)-quinazolin-4-yl]-amine], the Ki on GSK-3β (AA 1-420) lay in the range of 100 to 1000 nM.

For `CSc1n[nH]c(Nc2nc(-c3ccccc3C(F)(F)F)nc3ccccc23)n1` [IX-156, (5-Methylsulfanyl-2H-[1,2,4]triazol-3-yl)-[2-(2-trifluoromethylphenyl)-quinazolin-4-yl]-amine], the Ki at GSK-3β (AA 1-420) was in the range of 1000 to 20000 nM.

On GSK-3β (AA 1-420), `c1ccc(-c2cc(Nc3nc[nH]n3)c3ccccc3n2)cc1` [IX-176, (2-Phenyl-quinolin-4-yl)-(1H-[1,2,4]triazol-3-yl)-amine] registered a Ki of 1000 to 20000 nM.
